Measured values as given in patent US20250302846A1, “ANTIBIOTIC COMPOSITION AND METHODS OF USE THEREOF” (THE REGENTS OF THE UNIVERSITY OF COLORADO A BODY CORPORATE, priority 2022, published 2025).
In brackets after ≈: the same amount, converted by molar mass. Several values for one entry are separate records, joined by “and”; a condition that tells them apart may be missing. Identical values can stand only once. Like-named read-outs stand apart in the source and are kept apart here.

What was measured:
Format in all cases: cell-based
E. coli (K-12) = experiment: Minimum inhibitory concentration determination in broth; conditions: for MIC50: Escherichia coli
Description: (§1) Bacterial Strains: S. Typhimurium (SL1344), S. Typhimurium (14028s, ATCC), S. Typhimurium ΔacrAB (ALR1257), E. coli (K-12 derivative BW25113 (wild-type)), E. coli K-12 AtolC (JP313 delta tolC; also called AD3644 and JLD1285).
(§2) Minimum inhibitory concentration determination: Overnight LB-grown cultures were diluted in LB or MHB to an optical density (OD600) of 0.01 and distributed into polystyrene 96-well flat-bottom plates (Greiner, 655185). […] The final DMSO concentration was at or below 2%. Where indicated, PMB [0.5 μg/mL] was added prior to D66. Plates were grown at 37° C. with shaking and OD600 was monitored (BioTek Synergy H1 or BioTek Eon). MICs were defined as the concentration at which 95% of growth was inhibited (OD600).

E. coli K-12 ΔtolC = experiment: as above; conditions: for MIC50: Escherichia coli
Description: as §1, §2

S. Typhimurium ΔacrAB = experiment: as above; conditions: for MIC50: Salmonella enterica, TYPHIMURIUM
Description: as §1, §2

S. Typhimurium [1] = experiment: Bacterial membrane potential assay with DiSC3(5); conditions: mid-log cells in LB with PMB [0.5 μg/mL]; corrected for quenching by D66; JD1 [70 μM]
Description: (§3) FIG. 3A-F. D66 rapidly perturbs the bacterial cytoplasmic membrane with minor disruption of barrier function. Mid-log phase S. Typhimurium cells grown in LB with 0.5 μg/mL PMB were used for all experiments. A) Cell membrane potential was monitored with the fluorescent dye DiSC3 (5). Cells were treated at time 0 with DMSO, JD1 [70 μM], or D66. Data were normalized to DMSO at time 0 and corrected for the quenching effect of D66 (FIG. 6A, B) B) Cell membrane permeability was monitored by PI fluorescence. Cells were treated at time 0 with DMSO, SDS [0.005%] or D66. Samples were processed at the time points shown. A one-way ANOVA with a Dunnet's multiple comparison test, * P<0.005. C-F) Growth curves and kill-curves of cells treated at time 0 with either DMSO or D66. Culture aliquots were monitored for OD600 (C, E) or plated for enumeration of CFU (D, F). Data are presented as fold change. Mean and SEM of three biological replicates with technical triplicates are shown in all panels.
Bacterial Membrane potential assays: Membrane potential was measured using the potentiometric fluorescent probe DiSC3 (5) (Invitrogen). Mid-log phase cells were diluted to an OD600 of 0.4. […] Plates were monitored (ex650/em680 nm) on a BioTek Synergy H1 plate reader. After baseline fluorescence was recorded, compound was added to the desired final concentration and measurements were recorded for an additional 30 minutes. […]

S. Typhimurium [2] = experiment: Propidium iodide membrane barrier assay
Description: as §3
Propidium iodide membrane barrier assays: Compound, DMSO, or SDS was added to mid-log phase cells to the desired concentration, and cultures were sampled at 0, 10, 15, 20, 30 and 45 minutes. Five minutes before harvesting, PI [10 μg/mL] (Life Technologies) was added. Cells were pelleted, washed twice, resuspended in PBS, and monitored (ex535/em617 nm) using a BioTek Synergy H1 plate reader.

S. aureus FDA209 [3] = experiment: Growth inhibition in broth (MIC95); conditions: Staphylococcus aureus
Description: FIG. 8A-B. […] inhibits the growth of Gram-positive bacteria in broth. A) Dose response curves monitoring staphylococcal and B. subtills growth in the presence of […] from an OD600 of 0.01, normalized to growth in 2% DMSO after 18 hours. Mean and SEM of at least three biological replicates performed with technical triplicates. B) Table of […] concentrations that inhibit growth. For comparison, S. Typhimurium is included.

S. aureus FDA209 [4] = experiment: Laurdan generalized polarization membrane fluidity assay; conditions: mid-log S. aureus FDA209
Description: Mid-log phase S. aureus FDA209 cells were used for all experiments. A) Membrane fluidity was evaluated with a Laurdan generalized polarization (GP) assay. Cells were exposed at time 0 to DMSO, benzyl alcohol (BnOH, a membrane fluidizer [50 mM]), or D66 (1x MIC95=130 μM). Mean and SEM of three biological replicates performed with technical triplicates. B) Membrane permeability was monitored by PI fluorescence. Cells were exposed at time 0 to DMSO, SDS [0.3%], or D66. Samples were processed at the timepoints shown. Mean and SEM of three biological replicates performed with technical triplicates. C) Intracellular pH was monitored with the fluorescent probe BCECF-AM. Cells were exposed at time 0 to DMSO, the protonophore CCCP [100 μM], or D66. Mean and SEM of three biological replicates performed with technical triplicates. D) Intracellular ATP levels measured using the Promega BacTiter-Glo kit after 30 minutes of treatment with DMSO, chloramphenicol (Chlor), or D66. Mean and SEM of three biological replicates performed with technical triplicates. E) Respiration rates of cells incubated with resazurin and treated at time 0 as indicated. Mean and […]

## O=C(Nc1cc(Cl)cc(Cl)c1)N1CCCN(Cc2ccccc2)CC1 [D66]
E. coli (K-12); LB, read-out: MIC50 in LB
  MIC50: > 150 µM and > 57 µg/mL
E. coli (K-12); MHB, read-out: MIC50 in MHB
  MIC50: > 150 µM
E. coli (K-12); LB
  cMIC95 in LB: >150 µM
E. coli (K-12); MHB
  cMIC95 in MHB: >150 µM
E. coli K-12 ΔtolC; E. coli K-12 ΔtolC, LB
  cMIC95 in LB: 52 µM
E. coli K-12 ΔtolC; E. coli K-12 ΔtolC, MHB
  cMIC95 in MHB: 43 µM
E. coli K-12 ΔtolC; read-out: MIC50 in LB
  MIC50: 47 µM and 18 µg/mL
E. coli K-12 ΔtolC; read-out: MIC50 in MHB
  MIC50: 36 ± 1 µM
S. Typhimurium ΔacrAB; S. Typhimurium ΔacrAB, LB
  cMIC95 in LB: 142 µM
S. Typhimurium ΔacrAB; S. Typhimurium ΔacrAB, MHB
  cMIC95 in MHB: 116 µM
S. Typhimurium ΔacrAB; read-out: MIC50 in LB
  MIC50: 128 µM and 48 µg/mL
S. Typhimurium ΔacrAB; read-out: MIC50 in MHB
  MIC50: 81 ± 6 µM
S. Typhimurium [1]
  DiSC3(5) fluorescence (membrane voltage): rapidly increased the fluorescence of DiSC3 (5) in a dose-dependent manner
S. Typhimurium [2]; LB with PMB [0.5 μg/mL], D66 at 1x MIC95
  time elapsed prior to an increase in PI fluorescence: 45 min
S. Typhimurium [2]; LB with PMB [0.5 μg/mL], D66 at 2x MIC95, SDS [0.005%] positive control
  time of treatment after which PI signal increased: 10 min
S. Typhimurium [2]; at 1x MIC, within 30 minutes
  PI signal increase: two-fold
S. aureus FDA209 [3]
  MIC: 130 µM (≈ 49.2 µg/mL)
S. aureus FDA209 [4]
  membrane fluidity: rapidly increases membrane fluidity
